# In patent US20100303786A1, “Stabilisation of Liquid-Formulated Factor VII(A) Polypeptides by Aldehyde-Containing Compounds” (Novo Nordisk Health Care AG, priority 2007, published 2010):
# Entries after “also recorded” stand apart in the source; their conditions may differ.
# Assays:
# 40K-PEG-rFVIIa [1] = biological target: T1, 40K-PEG-rFVIIa (Homo sapiens, UniProt P08709); assay: Stability of liquid 40K-PEG-rFVIIa formulations: clot activity (one-stage coagulation assay, Assay 3); assay type: biochemical; conditions: 2 months at 5° C.; 28 mM benzaldehyde or 180 mM 5-formyl-4-methylimidazole
# T1 construct: has been cleaved at the peptide bond preceding position 153
# T1 sequence (P08709 213-466 limits assumed): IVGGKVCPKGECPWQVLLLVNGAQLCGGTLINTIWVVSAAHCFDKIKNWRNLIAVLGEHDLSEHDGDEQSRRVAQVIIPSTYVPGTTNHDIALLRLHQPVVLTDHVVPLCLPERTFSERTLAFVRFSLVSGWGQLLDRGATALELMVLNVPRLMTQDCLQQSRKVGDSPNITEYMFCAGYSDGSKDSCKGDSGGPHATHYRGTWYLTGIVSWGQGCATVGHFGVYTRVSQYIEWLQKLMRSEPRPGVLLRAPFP
# T1 sequence (P08709 61-212 limits assumed): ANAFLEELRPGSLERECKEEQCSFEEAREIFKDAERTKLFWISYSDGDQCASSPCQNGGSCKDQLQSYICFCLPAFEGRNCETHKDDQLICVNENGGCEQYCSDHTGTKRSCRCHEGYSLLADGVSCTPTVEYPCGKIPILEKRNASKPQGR
# Method: The clot assay is used to assess the ability of Factor VIIa polypeptides to make blood clot. For this purpose, the sample to be tested is diluted in 50 mM PIPES-buffer (pH 7.5), 0.1% BSA and 40 μl is incubated with 40 μl of Factor VII deficient plasma and 80 μl of human recombinant tissue factor containing 10 mM Ca2+ and synthetic phospholipids. Coagulation times (clotting times) are measured and compared to a standard curve using a reference standard in a parallel line assay.
# A stability experiment with liquid formulations containing 40K-PEG-rFVIIa was performed. The formulations had the following compositions: […]
# The PEG moiety is excluded in the specification of 40K-PEG-rFVIIa concentration. pH was 6.5 in all samples. At 0, ½, 1 and 2 months, 70 μl aliquots were taken from the stability sample, diluted to 1 mg/ml 40K-PEG-rFVIIa and assayed for clot activity (Δactivity), FVIIa polypeptide fragmentation (Δfragment), dimer/2-PEG, and high molecular weight protein.
# 40K-PEG-rFVIIa [2] = biological target: T1, 40K-PEG-rFVIIa; assay: Stability of liquid 40K-PEG-rFVIIa formulations: heavy chain fragmentation (Assay 5); assay type: physicochemical; conditions: 2 months at 5° C.; 28 mM benzaldehyde or 180 mM 5-formyl-4-methylimidazole
# Method: For the purpose of determining the content of heavy chain fragmentation products of 40K-PEG-rFVIIa, a reverse phase HPLC was run on a ACE 3 μm C4, 300 Å, 4.6×100 mm column (Advanced Chromatography Technologies, part. no. ACE-213-1046). Column temperature: 60° C. A-buffer: 0.05% v/v trifluoracetic acid. B-buffer: 0.06% v/v trifluoracetic acid, 80% v/v acetonitrile. Denaturation buffer: 6M Guanidine hydrochloride, 50 mM Tris, 5 mM calcium chloride, pH 7,5. Samples are prepared from 50 μl analysis sample+50 μl denaturation buffer+5 μl DTT+1 μl acetic acid and incubated at 60° C. for 15 min.
# The column was eluted with a linear gradient from 35 to 80% B in 30 minutes. Flow rate: 0.7 mL/min. Detection: 214 nm. Load: 25 μg FVIIa. The initial content of heavy chain degradation products is subtracted from the measured content of heavy chain degradation product, i.e. the initial content of heavy chain degradation products is set to 0%. The content of heavy chain degradation products at the time x is then calculated as: […]
# wherein HCDP(x) is the measured content of heavy chain degradation products at the time x, HCDP(0) is the measured initial content of heavy chain degradation products, and FVII(x) is the content of the intact Factor VII polypeptide at the time x.
# A stability experiment with liquid formulations containing 40K-PEG-rFVIIa was performed. […]
# FVIIa = biological target: T2, FVIIa (Homo sapiens, UniProt P08709); assay: Thermo-fluorescence (thermal shift) measurement of FVIIa denaturation temperature in the presence of aldehydes; assay type: physicochemical; conditions: 25 mM imidazole, pH 6.5, 20 mM CaCl2, 60 mg/ml sucrose; various aldehyde concentrations; FIG. 2
# T2 construct: has been cleaved at the peptide bond preceding position 153
# T2 sequence (P08709 213-466 limits assumed): T1 sequence (P08709 213-466 limits assumed)
# T2 sequence (P08709 61-212 limits assumed): T1 sequence (P08709 61-212 limits assumed)
# Method: The effect of aldehydes on Factor VIIa amidolytic activity is shown in an in vitro hydrolysis assay (20 mM imidazole, pH 6.5, 20 mM CaCl2), the results of which are illustrated in FIG. 1. A clear inhibition of amidolytic activity is observed. However, the apparent inhibition could be due to FVIIa denaturation. In order to address this issue, the denaturation temperature of FVIIa was measured in the presence of aldehydes. The measurement was performed by thermo-fluorescence, essentially as the thermal shift assay described by Lo et al., Analytical Biochemistry 332, 153-159 (2004). The denaturation temperature was determined as the point of maximum slope of the fluorescence intensity curve. The denaturation temperature is shown in FIG. 2 at various concentrations of aldehydes (25 mM imidazole, pH 6.5, 20 mM CaCl2, 60 mg/ml sucrose). […] Therefore, the inhibitory activity of these three compounds may be caused by denaturation.
# rFVIIa = biological target: T3, rFVIIa (Homo sapiens, UniProt P08709); assay: Stability experiment: heavy chain fragmentation of rFVIIa after 4 weeks in benzaldehyde solutions; assay type: physicochemical; conditions: 4 weeks at 5° C.; 12.5 mg/ml rFVIIa, pH 6.5; 0, 10, 20, 40 and 80 mM benzaldehyde; FIG. 5
# T3 construct: has been cleaved at the peptide bond preceding position 153
# T3 sequence (P08709 213-466 limits assumed): T1 sequence (P08709 213-466 limits assumed)
# T3 sequence (P08709 61-212 limits assumed): T1 sequence (P08709 61-212 limits assumed)
# Method: In the below working examples the content of heavy chain fragmentation products of Factor VIIa is determined by RP-HPLC as described in the following:
# Reverse phase HPLC was run on a proprietary 4.5×250 mm butyl-bonded silica column with a particle size of 5 μm and pore size 300 Å. Column temperature: 70° C. A-buffer: 0.1% v/v trifluoracetic acid. B-buffer: 0.09% v/v trifluoracetic acid, 80% v/v acetonitrile. The column was eluted with a linear gradient from X to (X+13) % B in 30 minutes. X was adjusted so that FVIIa elutes with a retention time of approximately 26 minutes. Flow rate: 1.0 mL/min. Detection: 214 nm. Load: 25 μg FVIIa.
# A stability experiment with liquid formulations containing FVIIa was performed. Conditions in all samples were 10 mM His, pH 6.5, 20 mM CaCl2, 6% sucrose, 0.5 mg/ml methionine, 12.5 mg/ml rFVIIa. 50 μl solutions with 0, 10, 20, 40 and 80 mM benzaldehyde in 500 μl cryotubes were prepared, incubated at 5° C. for 4 weeks and then frozen to −80° C. In addition, a reference sample without benzaldehyde was prepared and immediately frozen to −80° C. For analysis, all samples were thawed, diluted to 1 ml volume in 10 mM histidine, pH 5.5, and analysed for heavy chain fragmentation.
SMILES,Loss of activity / FVIIa polypeptide stability compared to the reference formulation (40K-PEG-rFVIIa [1]),Fragmentation compared to the reference formulation (40K-PEG-rFVIIa [2]),Effect on Factor VIIa denaturation temperature (melting point) (FVIIa),Fragmentation as a percentage of the total Factor VIIa content (% fragmented) (rFVIIa)
"Cc1nc[nH]c1C=O [5-formyl-4-methylimidazol, 5-formyl-4-methylimidazole]",very large improvement in FVIIa polypeptide stability,very large reduction in fragmentation,–,–
O=Cc1ccccc1 [benzaldehyde],small reduction in fragmentation and loss of activity,small reduction in fragmentation,drops significantly at high aldehyde concentration; also recorded: affect the denaturation temperature at high concentrations,"decreases as the concentration of benzaldehyde is increased; also recorded: much lower in the presence of benzaldehyde, particularly in concentrations above 10 mM"
